# In patent US12594265B2, “Methods and compositions for inhibition of STAT3” (Ohio State Innovation Foundation, priority 2017, dated 2026):
# Marks after values point to notes of the source that are not given here.
# Columns and labels:
# [1] = system: relapsing-remitting EAE model of MS; assay: Relapsing-remitting EAE model of MS (PLP-immunized SJL mice); type: in vivo; conditions: 10 mg/kg daily, days 9-15 or days 36-42
# Protocol: (§1) EAE Induction. Immunization: 8-10 week old B6/WT or SJL/WT mice were s.c. injected over four sites in the flank with 200 μg MOG 35-55 or […] (CS bio) in an emulsion with CFA (Difco). 200 ng pertussis toxin (List) per mouse in PBS was injected i.p. at the time of immunization and 48 h later. Adoptive transfer: Splenocytes were isolated from naïve 5-10-week-old Vα2.3/Vβ8.2 TCR transgenic mice and activated with 10 μg/ml of MBP Ac1-11 with or without rmIL-6 in 24-well plates at […] with irradiated B10.PL splenocytes (6×10^8 cells/well). After 72 hours, the cells were washed with PBS and 8×10^6 were injected i.p. into naïve B10.PL mice. Evaluation. The mice were evaluated daily for clinical signs of EAE. Mice were scored on scale of 0 to 6:0, no clinical disease; 1, limp/flaccid tail; 2, moderate hind limb weakness; 3. severe hind limb weakness; 4. complete hind limb paralysis; 5 quadriplegia or premoribund state; and 6, death.
# SJL mice develop relapsing-remitting disease after immunization with PLP 139-151, which resembles human relapsing-remitting MS, the major subtype of MS that affects more than 85% of MS patients. […]
# [2] = system: adoptively transferred EAE; assay: Adoptively transferred EAE model of MS (B10.PL mice); type: in vivo
# Protocol: as §1
# The in vivo efficacy of LLL12b was evaluated in adoptively transferred EAE model by treating EAE mice with […] of LLL12b for 7 days after disease onset. FIGS. 9A-9C show representative data for the effect of a representative disclosed compound, LLL12b, on suppression of EAE development in an adoptive transfer EAE model of MS. […] The mice were then treated with either DMSO or a representative disclosed compound, LLL12b, (10 mg/kg) by daily intraperitoneal for 7 days. […] The summary of all four independent experiments was shown below in Table 1.
# EAE was induced via adoptive transfer of activated myelin-specific CD4 T cells from Vα2.3/Vβ8.2 TCR transgenic mice into B10.PL mice. LLL12b or DNSO (vehicle control) was injected i.p. into mice daily for 7 days, starting when 70% of the mice developed clinical EAE. Mice were monitored for clinical signeds of EAE. Assessment of clinical EAE includes the incidence of EAE, the mean peak clinical scores±SEM and the area under the curve. The results of three independent experiments are shown. ^aP<0.01, comparing incidence of EAE in LLL12b group versus DMSO group. ^bP<0.01, comparing mean peak clinical score of LLL12b group versus DMSO group. ^cP<0.05, comparing area under the curve of LLL12b group versus DMSO group.
# LLL12b treatment suppresses the production of inflammatory cytokines in myelin-specific CD4 T cells and promotes Treg development in vivo. The ex vivo analysis to determine the T effector function of myelin-specific CD4 T cells as well as Treg development in treated mice was carried. FIGS. 10A-10C show representative data for the effect of treatment with a representative disclosed compound. LLL12b, on Treg development in an adoptively transferred EAE model of MS. Briefly, splenocytes from were isolated from either a LLL12b- or DMSO-treated group as indicated and analysed.
# [3] = system: pSTAT3 in CD4 T cells from MS patients; assay: Phosphorylation of STAT3 in CD4 T cells from MS patients (phospho flow cytometry); type: cell-based, human; conditions: 0.25 μM; αhCD3 plus rhIL-6 for 30 minutes; 6 patients
# Protocol: FIGS. 13A-13C show representative data for the effect of LLL12b treatment on the phosphorylation status of STAT3 in CD4 T-cells obtained from MS patients. Briefly, PBMCs from treatment-naïve MS patients were activated with αhCD3 plus rhIL-6 for 30 minutes, in the presence of 0.25 μM of LLL12b or vehicle control (DMSO). pSTAT3 was determined by phospho flow cytometry. Cells were gated on CD4+ cells.
# LLL12b inhibits the phosphorylation of STAT3 in CD4 T cells from MS patients. To determine whether LLL12b suppresses the phosphorylation of STAT3 in human CD4 T cells, PBMCs from 6 treatment-naïve MS patients were activated with αhCD3 plus rhIL-6 for 30 minutes, in the presence of 0.25 μM of LLL12b or vehicle control (DMSO). pSTAT3 was determined by phospho flow cytometry.
# [4] = system: IL-23-induced IL-17 production in myelin specific CD4 T cells; assay: IL-23-induced IL-17 production in myelin-specific CD4 T cells (splenocytes of PLP-immunized SJL mice); type: cell-based; conditions: PLP 139-151 with IL-23 for 3 days, different concentrations
# Text: Briefly, SJL mice were immunized with PLP 139-151. Splenocytes were isolated on day 20 after immunization and activated with PLP 139-151 with our without IL-23 for 3 days, in the presence of different concentrations of LLL12b or DMSO (vehicle control). […] Cells were gated on CD44+CD4+ T cells. Flow data are representative of three independent experiments. […] All error bars denote s.e.m. * * denotes p<0.01; *** denotes p<0.001; **** denotes p<0.0001.
# [5] = system: chronic EAE model of MS; assay: Chronic EAE model of MS (MOG-immunized B6 mice); type: in vivo
# Protocol: as §1
# The in vivo efficacy of LLL12b was also evaluated in chronic EAE model of MS in immunized B6 mice by treating EAE mice with […] of LLL12b for 7 days after disease onset. FIGS. 8A-8B show representative data for the effect of a representative disclosed compound, LLL12b, for suppression of EAE development in a chronic EAE model of MS. Briefly, naïve WT/B6 mice were immunized with […].
structure (smiles),measurement,setting,value
CN(C)C(=O)Oc1cccc2c1C(=O)c1cccc(S(N)(=O)=O)c1C2=O [LLL12b],acute and relapsing EAE (mean clinical score),[1],significantly suppresses acute and relapsing EAE
same,EAE development (in words),[2]; 10 mg/kg daily intraperitoneal for 7 days after disease onset,significantly suppresses EAE development
same,level of CD25+FoxP3+CD4+ Treg cells in splenocytes of treated animals,[2]; ex vivo flow cytometry,statistically significant increase
same,production of IFNγ by splenocytes of treated animals (ELISA),"[2]; ex vivo, activated with MBP Ac1-11 for 3 days",notable decrease
same,Area under the curve (clinical score),[2]; i.p. daily for 7 days,22.12 ± 2.09 ^c
same,Incidence of EAE (%),"[2]; i.p. daily for 7 days, starting when 70% of the mice developed clinical EAE",26/34 (76%) ^a
same,Mean peak clinical score,"[2]; i.p. daily for 7 days, ± SEM",2.03 ± 0.27 ^b
same,pSTAT3 expression in CD4 T cells from MS patients,[3],significantly suppresses pSTAT3 expression
same,IL-23-induced IL-17 production,[4],inhibition of IL-23-induced IL-17 production
same,EAE development (mean clinical score),"[5]; 10 mg/kg for 7 days, day 14 to day 20, after disease onset",significantly suppresses EAE development
same,IL-17 production of splenocytes from treated mice (ELISA),"[5]; ex vivo, activated with MOG 35-55 for 3 days",decreased IL-17 production
